This passage reports Biacore affinity, Binding properties and movement frequency results from patent EP4140481A1, “PROTEIN-OLIGOMER BINDING AGENTS AND THERAPEUTIC USES THEREOF” (Galyan Bio, Inc., priority 2021, dated 2023).

In one data set the test system is Mur16 and/or Mur46. The experiment in a line: Biacore Surface Plasmon Resonance (SPR) screening, binding to the target structures. The conditions noted are these: for Biacore affinity: primary screen, compounds that demonstrated binding to Mur16 and/or Mur46. As for the experimental part:
(§1) Exon 1 of the HTT huntingtin (NCBI Gene ID 3064) was expressed as a fusion protein with (i) TRX only (MurTRX); (ii) 16Q (Mur16); and (iii) 46Q (Mur46). MurTRX, Mur16, and Mur46 were produced and purified by HIStag and size exclusion chromatography (SEC). The protocol for MurTRX, Mur16 and Mur46 expression was adopted from Bennett, M.J. et al. Proc. Natl. Acad. Sci. USA 99, 11634-11639. 2002.
Primary Screen - Results - 39 compounds determined from the in-silico screen were tested. Following solvent correction and blank subtraction, double referenced binding levels for samples were plotted against binding levels on both Mur 16 and Mur 46. […] The 4 compounds consistently bind with a higher response on the 16 Q surface than the 46 Q repeat surface, despite the MAb positive control showing the opposite trend.

Another data set addresses T1, Mur46 (Homo sapiens, UniProt P42858, INS38QQQQQQQQQQQQQQQQQQQQQQQQQ).
T1 construct: linker […]; made in house; host or cells: E. coli BL21(DE3) plysE, pET28a+
The experiment in a line: Biacore SPR, Mur46 coupled flow cell. The conditions noted are these: binding to Mur46; 0.1 mM compound concentration.
Excerpt: as §1
Biacore Affinity Values for Binding of Compounds to Mur46

The subject of a further data set is zebrafish larvae. The experiment in a line: Motility Zebrafish Model (MPP+ exposure, photomotor assay and sleep). The conditions noted are these: 500 µM MPP+ alone (naïve 40.8).

T1 sequence (P42858 with tags, fused parts or gaps with the stated changes limits assumed): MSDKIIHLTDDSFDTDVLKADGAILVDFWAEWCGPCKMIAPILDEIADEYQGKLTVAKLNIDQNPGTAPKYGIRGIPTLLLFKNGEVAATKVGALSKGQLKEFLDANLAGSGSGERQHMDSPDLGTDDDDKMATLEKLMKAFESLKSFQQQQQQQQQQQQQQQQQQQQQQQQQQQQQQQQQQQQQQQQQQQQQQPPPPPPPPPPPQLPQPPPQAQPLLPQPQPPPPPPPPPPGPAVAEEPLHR
Description for zebrafish larvae: Six groups were included in each experiment. Immediately after spawning, 40 embryos per group were allocated to a 24-well plate and system water (solvent) was added to all wells. […] MPP+ was prepared immediately prior to incubation and solutions were changed daily. At 120 hpf, drug treatment and MPP+ exposure was ceased and a 3X wash was performed with system water. Larvae were then relocated to 96-well plates for behavioral recording and placed in a separate recording room for 24-hour acclimation. Prior to behavioral recording, wells were fully replenished system water.
Naive group was exposed to solvent only. Vehicle group was exposed to solvent and vehicle corresponding to the vehicle of 20 µM drug solution (0.02% DMSO). MPP+ positive control was exposed to solvent and 500 µM MPP+.
Behavioral data was recorded from 1 p.m. on 6 dpf until shortly after wakening on 7 dpf. The recording consisted of a photomotor assay in which lights switch off and on in 30-minute intervals between 1 p.m. and 6 p.m., producing a consistent photomotor response. […] Upon lights being turned on again, the larvae cease movement followed by a return to baseline. This cycle is repeated five times. Following the last lights-off phase, constant illumination is presented until lights turn off at 10 p.m. for the night. Lights turn on again at 8 a.m. the following day.
Average movement frequency was measured during 30-minute lights-on phases of photomotor assay.
Distance moved (mm) was defined as the average distance moved during 30-minute lights-on phases of photomotor assay.
All data are presented as mean ± standard error of the mean (sem). For analysis of differences between groups, a Kruskal-Wallis one-way ANOVA with Dunn's multiple comparison post hoc test was performed. P < 0.05 was considered statistically significant.

As to `Cc1[nH]c2ccccc2c1[C@]1(O)C(=O)Nc2c(Br)cc(Br)cc21` [Compound 110], the Biacore affinity with Mur16 and/or Mur46 is recorded as 80 RU^2. In the data set on Mur16 and/or Mur46, `Cc1[nH]c2ccc(C(=O)NCC(=O)NC(C)C)cc2c1C` [Compound 113] had a Biacore affinity of 160 RU^2.

At Mur46, `Cc1[nH]c2ccc(C(=O)N(C)CCN(C)C3CC3)cc2c1C` [Compound 114] registered a Biacore affinity of 20 RU^2. Besides, the Binding properties entry in the data set with Mur16 and/or Mur46 (third analog screening, binding to the target structure in comparison to parent compound) is listed as “+/-”. With `C[n+]1ccc(-c2ccccc2)cc1` [MPP+, 1-methyl-4-phenylpyridinium, reference compound], in the data set with zebrafish larvae, the movement frequency is 13.3 movement bouts in 30 minutes.
